Data as given in patent US8846699B2, “Quinazoline derivatives as a multiplex inhibitor and method for the preparation thereof” (Hanmi Pharm. Co., Ltd., priority 2005, dated 2014).

Legend:
VEGFR2 (KDR) = VEGFR2 (KDR) (Homo sapiens (Human), UniProt P35968); experiment: VEGFR2 (KDR) enzyme assay, fluorescence polarization; type: biochemical; settings: 5 μM ATP, poly(Glu, Tyr) substrate
Outline: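 Autophosphorylation read by fluorescence polarization: VEGFR2 (Proquinase) at 200 ng/10 μl with 5 μM ATP and 10 ng/ml poly(Glu,Tyr) 4:1, in 20 mM HEPES pH 7.4, 5 mM MgCl2, 2 mM MnCl2, 50 μM Na3VO4. Reaction 1 h at room temperature, EDTA stop, then anti-phosphotyrosine antibody/tracer for 30 min in the dark.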

[1] = test system: colon and rectal cancer cell line, SW-620; experiment: Inhibitory effect on growth of cancer cell line SW-620, SRB; type: cell-based; settings: not having overexpressed EGFR and EGFR2
Outline: (§1)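 Cells were cultured in DMEM with 10% FBS. Compounds were applied at 10 μM with 10-fold serial dilution to 10^−4, DMSO <1%, for 72 h at 37 °C. Cells were then TCA-fixed and stained with 0.4% SRB, and absorbance was read at 570 nm after solubilisation in 10 mM Tris base.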

[2] = test system: Human Umbilical Vein Endothelial Cell (HUVEC); experiment: Inhibitory effect on growth of human umbilical vein endothelial cell (HUVEC), MTS; type: cell-based; settings: 10 ng/ml VEGF, absorbance 490 nm
[3] = test system: breast cancer cell line, SK-Br3; experiment: Inhibitory effect on growth of cancer cell line SK-Br3, SRB; type: cell-based; settings: overexpressed EGFR2 (HER-2)
Outline: as §1

EGFR1 (HER-1) = EGFR1 (HER-1) (Homo sapiens (Human), UniProt P00533); experiment: EGFR1 (HER-1) enzyme assay, fluorescence polarization; type: biochemical; settings: 100 μM ATP, poly(Glu, Tyr) substrate
EGFR1 (HER-1), sequence (P00533 25-1210): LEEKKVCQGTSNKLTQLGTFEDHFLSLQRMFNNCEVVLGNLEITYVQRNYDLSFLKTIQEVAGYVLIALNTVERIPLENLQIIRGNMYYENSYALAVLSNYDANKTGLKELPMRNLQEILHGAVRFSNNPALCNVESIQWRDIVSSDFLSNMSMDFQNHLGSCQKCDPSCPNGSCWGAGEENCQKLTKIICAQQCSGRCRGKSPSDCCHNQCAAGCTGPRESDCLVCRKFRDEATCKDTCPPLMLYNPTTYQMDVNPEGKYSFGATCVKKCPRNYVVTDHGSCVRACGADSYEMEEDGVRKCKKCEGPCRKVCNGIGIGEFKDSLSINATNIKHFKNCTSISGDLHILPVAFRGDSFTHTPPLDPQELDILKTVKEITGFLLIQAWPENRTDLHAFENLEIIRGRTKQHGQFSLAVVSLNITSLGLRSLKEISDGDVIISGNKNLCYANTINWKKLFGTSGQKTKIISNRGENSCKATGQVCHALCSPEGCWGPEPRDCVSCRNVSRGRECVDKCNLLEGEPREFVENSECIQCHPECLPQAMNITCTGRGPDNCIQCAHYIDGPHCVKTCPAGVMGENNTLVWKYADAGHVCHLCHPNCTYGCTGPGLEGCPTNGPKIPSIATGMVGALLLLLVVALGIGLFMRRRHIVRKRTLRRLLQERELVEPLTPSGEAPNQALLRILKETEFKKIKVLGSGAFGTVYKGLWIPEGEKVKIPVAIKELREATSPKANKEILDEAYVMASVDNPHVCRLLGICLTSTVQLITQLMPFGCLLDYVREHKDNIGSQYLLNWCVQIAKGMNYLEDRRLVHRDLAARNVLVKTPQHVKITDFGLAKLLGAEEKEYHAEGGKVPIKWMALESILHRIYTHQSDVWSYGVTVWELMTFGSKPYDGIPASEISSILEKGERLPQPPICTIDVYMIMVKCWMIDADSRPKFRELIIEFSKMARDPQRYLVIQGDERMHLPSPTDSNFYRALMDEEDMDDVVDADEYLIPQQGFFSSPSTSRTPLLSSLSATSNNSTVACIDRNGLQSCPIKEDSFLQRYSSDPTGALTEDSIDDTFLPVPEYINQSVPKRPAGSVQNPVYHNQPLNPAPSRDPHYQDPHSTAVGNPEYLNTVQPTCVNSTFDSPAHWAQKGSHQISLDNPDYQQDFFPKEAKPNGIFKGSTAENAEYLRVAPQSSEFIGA

[4] = test system: skin cancer cell line, A431; experiment: Inhibitory effect on growth of cancer cell line A431, SRB; type: cell-based; settings: overexpressed EGFR1 (HER-1)
Outline: as §1

VEGFR2 (KDR), sequence (P35968 20-1356): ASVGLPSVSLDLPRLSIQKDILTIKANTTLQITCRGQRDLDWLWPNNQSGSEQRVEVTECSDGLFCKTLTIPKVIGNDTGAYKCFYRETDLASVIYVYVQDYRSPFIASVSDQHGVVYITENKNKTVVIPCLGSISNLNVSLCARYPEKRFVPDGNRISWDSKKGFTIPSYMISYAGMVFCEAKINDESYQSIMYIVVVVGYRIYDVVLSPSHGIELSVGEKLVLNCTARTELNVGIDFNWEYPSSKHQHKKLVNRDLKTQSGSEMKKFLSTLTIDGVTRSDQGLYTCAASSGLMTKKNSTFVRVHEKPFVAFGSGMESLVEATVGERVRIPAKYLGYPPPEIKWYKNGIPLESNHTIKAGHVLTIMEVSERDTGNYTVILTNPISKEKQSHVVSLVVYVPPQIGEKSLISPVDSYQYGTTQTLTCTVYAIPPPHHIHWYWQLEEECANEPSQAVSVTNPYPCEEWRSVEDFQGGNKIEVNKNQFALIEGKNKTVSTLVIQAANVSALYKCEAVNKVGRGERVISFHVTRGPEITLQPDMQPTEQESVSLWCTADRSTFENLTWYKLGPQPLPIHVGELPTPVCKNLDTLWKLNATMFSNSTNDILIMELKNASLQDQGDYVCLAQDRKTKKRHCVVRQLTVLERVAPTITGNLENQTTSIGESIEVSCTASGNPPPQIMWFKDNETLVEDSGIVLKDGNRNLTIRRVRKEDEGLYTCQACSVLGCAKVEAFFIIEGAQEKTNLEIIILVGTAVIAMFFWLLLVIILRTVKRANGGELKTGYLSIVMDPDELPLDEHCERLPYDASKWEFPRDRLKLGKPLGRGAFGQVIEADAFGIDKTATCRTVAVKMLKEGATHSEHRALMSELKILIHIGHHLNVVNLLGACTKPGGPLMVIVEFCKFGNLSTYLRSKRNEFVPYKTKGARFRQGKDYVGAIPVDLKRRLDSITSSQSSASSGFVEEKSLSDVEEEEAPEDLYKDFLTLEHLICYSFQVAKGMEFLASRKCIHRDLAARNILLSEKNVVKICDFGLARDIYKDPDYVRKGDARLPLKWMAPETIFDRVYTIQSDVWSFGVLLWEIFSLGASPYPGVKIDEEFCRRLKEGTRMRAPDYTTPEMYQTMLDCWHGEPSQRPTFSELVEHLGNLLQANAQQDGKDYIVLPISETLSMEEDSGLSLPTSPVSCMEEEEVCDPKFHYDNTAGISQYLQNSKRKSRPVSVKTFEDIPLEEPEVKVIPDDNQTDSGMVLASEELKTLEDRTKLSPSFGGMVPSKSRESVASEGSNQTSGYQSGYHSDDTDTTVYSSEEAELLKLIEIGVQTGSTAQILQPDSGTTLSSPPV

| SMILES | IC50 (VEGFR2 (KDR)) [nM] | IC50 (EGFR1 (HER-1)) [nM] | IC50 ([1]; Homo sapiens, 72 h) [nM] | IC50 ([3]; Homo sapiens, SK-BR-3, 72 h) [nM] | IC50 ([4]; Homo sapiens, A-431, 72 h) [nM] | IC50 ([1]; 72 hours) [nM] | IC50 ([2]; 96 hours) [nM] | IC50 ([3]; 72 hours) [nM] | IC50 ([4]; 72 hours) [nM] | IC50 ([2]; Homo sapiens, 96 h) [nM] |
| --- | --- | --- | --- | --- | --- | --- | --- | --- | --- | --- |
| C=CC(=O)Nc1cc2c(Nc3ccc(Br)c(Cl)c3F)ncnc2cc1OC[C@H](C)NC(=O)CN(C)C [Example 163, (S)—N-4-(4-bromo-3-chloro-2-fluoro-phenylamino)-7-[2-(2-dimethylamino-acetylamino)-propoxy]-quinazolin-6-yl-acrylamide] | 722 | 12 | – | – | – | 10000 | 735 | 45 | 18 | – |
| C=CC(=O)Nc1cc2c(Nc3ccc(Br)c(Cl)c3F)ncnc2cc1OC[C@@H](C)NC(=O)CN(C)C [Example 164, (R)—N-4-(4-bromo-3-chloro-2-fluoro-phenylamino)-7-[2-(2-dimethylamino-acetylamino)-propoxy]-quinazolin-6-yl-acrylamide] | 713 | 14 | – | – | – | 8970 | 754 | 36 | 19 | – |
| C=CC(=O)Nc1cc2c(Nc3ccc(Br)cc3F)ncnc2cc1OCCNC(=O)CN(CC)CC [Example 167, N-{4-(4-bromo-2-fluoro-phenylamino)-7-[2-(2-diethylamino-acetylamino)-ethoxy]-quinazolin-6-yl}-acrylamide] | 462 | 26 | 10000 | 103 | 42 | – | – | – | – | 108 |
| C=CC(=O)Nc1cc2c(Nc3ccc(Br)c(Cl)c3F)ncnc2cc1OCCNC(=S)NCC [Example 170, N-{4-(4-bromo-3-chloro-2-fluoro-phenylamino)-7-[2-(3-ethyl-thioureido)-ethoxy]-quinazolin-6-yl}-acrylamide] | 189 | 68 | 8250 | 43 | 89 | – | – | – | – | 287 |
| C=CC(=O)Nc1cc2c(Nc3cc(OC)c(Cl)cc3OC)ncnc2cc1OCCNC(C)=O [Example 172, N-[7-(2-acetylamino-ethoxy)-4-(4-chloro-2,5-dimethoxy-phenylamino)-quinazolin-6-yl]-acrylamide] | 90 | 87 | 10000 | 3300 | 91 | – | – | – | – | 125 |

Now from value to compound, other results behind:

| IC50 (VEGFR2 (KDR)) [nM] | IC50 (EGFR1 (HER-1)) [nM] | IC50 ([1]; Homo sapiens, 72 h) [nM] | IC50 ([3]; Homo sapiens, SK-BR-3, 72 h) [nM] | IC50 ([4]; Homo sapiens, A-431, 72 h) [nM] | SMILES | IC50 ([1]; 72 hours) [nM] | IC50 ([2]; 96 hours) [nM] | IC50 ([3]; 72 hours) [nM] | IC50 ([4]; 72 hours) [nM] | IC50 ([2]; Homo sapiens, 96 h) [nM] |
| --- | --- | --- | --- | --- | --- | --- | --- | --- | --- | --- |
| 79 | 98 | 9760 | 198 | 137 | C=CC(=O)Nc1cc2c(Nc3ccc(Br)c(Cl)c3F)ncnc2cc1OCCNC(=O)OC [Example 165, {2-[6-acryloylamino-4-(4-bromo-3-chloro-2-fluoro-phenylamino)-quinazolin-7-yloxy]-ethyl}-carbamic acid methylester] | – | – | – | – | 189 |
| 38 | 8 | 10000 | 32 | 12 | C=CC(=O)Nc1cc2c(Nc3ccc(Br)c(Cl)c3F)ncnc2cc1OCCNC(=O)NCC [Example 168, N-{4-(4-bromo-3-chloro-2-fluoro-phenylamino)-7-[2-(3-ethyl-ureido)-ethoxy]-quinazolin-6-yl}-acrylamide] | – | – | – | – | 117 |
| 128 | 26 | 9100 | 67 | 35 | C=CC(=O)Nc1cc2c(Nc3ccc(Br)c(Cl)c3F)ncnc2cc1OCCNC(=O)NCCC [Example 169, N-{4-(4-bromo-3-chloro-2-fluoro-phenylamino)-7-[2-(3-propyl-ureido)-ethoxy]-quinazolin-6-yl}-acrylamide] | – | – | – | – | 233 |
| 136 | 20 | 10000 | 147 | 25 | C=CC(=O)Nc1cc2c(Nc3ccc(Br)cc3F)ncnc2cc1OCC1CCN(C(=O)NCC)CC1 [Example 171, 4-[6-acryloylamino-4-(4-bromo-2-fluoro-phenylamino)-quinazolin-7-yloxymethyl]-piperidine-1-carboxylic acid ethylamide] | – | – | – | – | 150 |
